According to PubChem BioAssay (NCI):
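Briefly, cells in 96-well plates were exposed to five compound concentrations for 48 h, and endpoints were estimated by linear interpolation. GI50 marks 50% less growth. TGI is the concentration that stops growth completely.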

How the values were obtained:
Test in all cases: NCI tumour cell line growth inhibition, 48 h
[1] = tested on: M14 melanoma
[2] = tested on: SNB-75 CNS
[3] = tested on: HS 578T breast
[4] = tested on: HOP-62 NSCLC
[5] = tested on: LOX IMVI melanoma
[6] = tested on: NCI-H460 lung
[7] = tested on: KM12 colon
[8] = tested on: IGROV1 ovarian
[9] = tested on: HOP-92 NSCLC
[10] = tested on: SF-295 CNS

CS(=O)(=O)CCNCc1ccc(-c2ccc3ncnc(Nc4ccc(OCc5ccccc5)c(Br)c4)c3c2)o1
GI50 [1]: 4.98 µM | TGI [1]: 10.3 µM | GI50 [2]: 10.1 µM | TGI [2]: > 25 µM | GI50 [3]: 5.08 µM | TGI [3]: 15.9 µM | GI50 [4]: 11.2 µM | TGI [4]: > 25 µM | GI50 [5]: 4.36 µM | TGI [5]: 8.69 µM | GI50 [6]: 7.87 µM | TGI [6]: > 25 µM | GI50 [7]: 9.06 µM | TGI [7]: > 25 µM | GI50 [8]: 4.94 µM | TGI [8]: > 25 µM | GI50 [9]: 3.49 µM | TGI [9]: 12.5 µM | GI50 [10]: 5.26 µM | TGI [10]: 12.8 µM

COc1ccc(-c2cc(-c3ccc(Cl)cc3)nc(SCCCC(=O)NO)n2)cc1
GI50 [1]: 0.786 µM | TGI [1]: 3.12 µM | GI50 [2]: 1.22 µM | TGI [2]: 5.61 µM | GI50 [3]: 2.08 µM | TGI [3]: 11.2 µM | GI50 [4]: 0.902 µM | TGI [4]: 6.66 µM | GI50 [5]: 0.153 µM | TGI [5]: 1.32 µM | GI50 [6]: 0.495 µM | TGI [6]: 3.9 µM | GI50 [7]: 1.44 µM | TGI [7]: 4.12 µM | GI50 [8]: 1.09 µM | TGI [8]: 3.56 µM | GI50 [9]: 1.8 µM | TGI [9]: 5.07 µM | GI50 [10]: 0.537 µM | TGI [10]: 2.23 µM

C=C(C)[C@@H]1CC[C@]2(C(=O)O)CC[C@]3(C)[C@H](CC[C@@H]4[C@@]5(C)CCC(NC(=O)c6cccc(OC(C)=O)c6OC(C)=O)C(C)(C)[C@@H]5CC[C@]43C)[C@@H]12 (stereo partly drawn)
GI50 [1]: 0.399 µM | TGI [1]: 2.25 µM | GI50 [2]: 0.452 µM | TGI [2]: 5.44 µM | GI50 [3]: 0.566 µM | TGI [3]: 4.28 µM | GI50 [4]: 0.785 µM | TGI [4]: 3.3 µM | GI50 [5]: 0.488 µM | TGI [5]: 1.74 µM | GI50 [6]: 0.38 µM | TGI [6]: 1.42 µM | GI50 [7]: 0.651 µM | TGI [7]: 3.46 µM | GI50 [8]: 0.604 µM | TGI [8]: 5.34 µM | GI50 [9]: 0.439 µM | TGI [9]: 2.25 µM | GI50 [10]: 0.562 µM | TGI [10]: 3.89 µM

COC(=O)c1cc2c3ccccc3n3c(=O)c4cc5ccccc5nc4c(n1)c23
GI50 [1]: > 100 µM | TGI [1]: > 100 µM | GI50 [2]: > 100 µM | TGI [2]: > 100 µM | GI50 [3]: > 100 µM | TGI [3]: > 100 µM | GI50 [5]: > 100 µM | TGI [5]: > 100 µM | GI50 [6]: > 100 µM | TGI [6]: > 100 µM | GI50 [7]: > 100 µM | TGI [7]: > 100 µM | GI50 [8]: > 100 µM | TGI [8]: > 100 µM | GI50 [9]: > 100 µM | TGI [9]: > 100 µM | GI50 [10]: > 100 µM | TGI [10]: > 100 µM

CCCN(CCC)c1ccc(/C=C/c2ccc3cc(OCC)ccc3n2)cc1
GI50 [1]: > 100 µM | TGI [1]: > 100 µM | GI50 [2]: 54.7 µM | TGI [2]: > 100 µM | GI50 [3]: > 100 µM | TGI [3]: > 100 µM | GI50 [4]: > 100 µM | TGI [4]: > 100 µM | GI50 [5]: > 100 µM | TGI [5]: > 100 µM | GI50 [6]: 63.2 µM | TGI [6]: > 100 µM | GI50 [7]: > 100 µM | TGI [7]: > 100 µM | GI50 [8]: > 100 µM | TGI [8]: > 100 µM | GI50 [9]: > 100 µM | TGI [9]: > 100 µM | GI50 [10]: 22.7 µM | TGI [10]: > 100 µM

N#Cc1ccc2c(c1)C(=O)c1c-2n(CCCCl)c(=O)c2cc([N+](=O)[O-])ccc12
GI50 [1]: 4.64 µM | TGI [1]: > 100 µM | GI50 [2]: 3.51 µM | TGI [2]: 11.5 µM | GI50 [3]: 41 µM | TGI [3]: > 100 µM | GI50 [4]: 2.55 µM | TGI [4]: 14 µM | GI50 [5]: 2.28 µM | TGI [5]: 14.8 µM | GI50 [6]: 0.395 µM | TGI [6]: > 100 µM | GI50 [7]: > 100 µM | TGI [7]: > 100 µM | GI50 [8]: 3.95 µM | TGI [8]: 53.3 µM | GI50 [9]: 5.06 µM | TGI [9]: 23.1 µM | GI50 [10]: 4.21 µM | TGI [10]: > 100 µM

COc1cc(N2CCC(N3CCN(C)CC3)CC2)ccc1Nc1ncnc(Nc2ccccc2S(=O)(=O)C(C)C)n1
GI50 [1]: 4.07 µM | TGI [1]: 16.6 µM | GI50 [2]: 3.63 µM | TGI [2]: 15.9 µM | GI50 [3]: 4.2 µM | TGI [3]: 54.5 µM | GI50 [4]: 2.29 µM | TGI [4]: 11.1 µM | GI50 [5]: 2.28 µM | TGI [5]: 7.62 µM | GI50 [6]: 7.24 µM | TGI [6]: 25.6 µM | GI50 [7]: 6.76 µM | TGI [7]: 27.6 µM | GI50 [8]: 2.64 µM | TGI [8]: 7.5 µM | GI50 [9]: 0.467 µM | TGI [9]: 2.03 µM | GI50 [10]: 4.55 µM | TGI [10]: 24 µM

C[C@@H](O)[C@H](NC(=O)N[C@@H](CC(N)=O)c1nc([C@@H](N)CO)no1)C(=O)O
GI50 [1]: > 100 µM | TGI [1]: > 100 µM | GI50 [2]: > 100 µM | TGI [2]: > 100 µM | GI50 [3]: > 100 µM | TGI [3]: > 100 µM | GI50 [4]: > 100 µM | TGI [4]: > 100 µM | GI50 [5]: > 100 µM | TGI [5]: > 100 µM | GI50 [6]: > 100 µM | TGI [6]: > 100 µM | GI50 [7]: > 100 µM | TGI [7]: > 100 µM | GI50 [8]: > 100 µM | TGI [8]: > 100 µM | GI50 [9]: > 100 µM | TGI [9]: > 100 µM | GI50 [10]: > 100 µM | TGI [10]: > 100 µM

CC(=Nc1ccccc1)C1=C(O)C(Cc2ccc(O)cc2)NC1=O (stereo not drawn)
GI50 [1]: 0.0469 µM | TGI [1]: 0.269 µM | GI50 [2]: 0.07 µM | TGI [2]: 0.566 µM | GI50 [3]: 0.0771 µM | GI50 [4]: 0.106 µM | TGI [4]: 2.46 µM | GI50 [5]: 0.152 µM | TGI [5]: > 23.1 µM | GI50 [6]: 0.0794 µM | TGI [6]: 1.08 µM | GI50 [7]: 0.0472 µM | TGI [7]: 1.31 µM | GI50 [8]: 0.232 µM | GI50 [9]: 0.082 µM | TGI [9]: > 100 µM

C=C1C(=O)O[C@H]2[C@H]1CC/C(COC(=O)c1cc3ccccc3o1)=C\CC[C@@]1(C)O[C@@H]21
GI50 [1]: 1.43 µM | TGI [1]: 3.13 µM | GI50 [2]: 1.34 µM | TGI [2]: 3.18 µM | GI50 [3]: 2.91 µM | TGI [3]: 10.9 µM | GI50 [4]: 2.48 µM | TGI [4]: 7.07 µM | GI50 [5]: 1.42 µM | TGI [5]: 2.81 µM | GI50 [6]: 2 µM | TGI [6]: 4.51 µM | GI50 [7]: 2.02 µM | TGI [7]: 4.61 µM | GI50 [8]: 1.39 µM | TGI [8]: 3.23 µM | GI50 [9]: 1.44 µM | TGI [9]: 3.1 µM | GI50 [10]: 5.9 µM | TGI [10]: 19.1 µM

COc1ccc(-c2oc(=O)ccc2-c2cc(OC)c(OC)c(OC)c2)cc1O
GI50 [1]: 0.833 µM | TGI [1]: 30.4 µM | GI50 [2]: 1.26 µM | TGI [2]: > 100 µM | GI50 [3]: 1.51 µM | TGI [3]: > 29.4 µM | GI50 [4]: 5.37 µM | TGI [4]: > 100 µM | GI50 [5]: 1.65 µM | TGI [5]: 45.3 µM | GI50 [6]: 0.604 µM | TGI [6]: > 100 µM | GI50 [7]: 0.507 µM | TGI [7]: > 48.7 µM | GI50 [9]: 8.61 µM | TGI [9]: > 80.4 µM | GI50 [10]: 1.26 µM | TGI [10]: > 100 µM

Nc1c2c(c(O)c3c1=C(CO)C=N3)=NCCS2
GI50 [1]: 0.0839 µM | TGI [1]: 0.215 µM | GI50 [2]: 0.168 µM | TGI [2]: 0.306 µM | GI50 [3]: 0.318 µM | TGI [3]: 0.812 µM | GI50 [4]: 0.175 µM | TGI [4]: 0.317 µM | GI50 [6]: 0.0389 µM | TGI [6]: 0.154 µM | GI50 [7]: 0.325 µM | TGI [7]: 1.74 µM | GI50 [8]: 0.209 µM | TGI [8]: 0.535 µM | GI50 [9]: 0.761 µM | TGI [9]: 2.5 µM | GI50 [10]: 0.177 µM | TGI [10]: 0.33 µM

N#CC1=C(N)Oc2c(ccc3ccccc23)C1c1ccccc1 (stereo not drawn)
GI50 [1]: 0.0348 µM | TGI [1]: 13.6 µM | GI50 [3]: 0.0316 µM | TGI [3]: 21.3 µM | GI50 [4]: 0.0555 µM | TGI [4]: 18.6 µM | GI50 [5]: 0.0575 µM | TGI [5]: 3.25 µM | GI50 [6]: 0.038 µM | TGI [6]: 10.8 µM | GI50 [7]: 0.0419 µM | TGI [7]: 13.5 µM | GI50 [8]: 0.0654 µM | TGI [8]: 16.9 µM | GI50 [9]: 0.0413 µM | TGI [9]: 12.9 µM | GI50 [10]: 0.0299 µM | TGI [10]: 11.6 µM
